Values joined by “and” are separate entries in the source; they are usually repeats but may differ in a detail not shown here. Identical values can stand only once.
Assays:
Test in all cases: In vitro DCF-G processing assay (UPLC)
Format in all cases: biochemical
E. coli GUS (EcGUS) = E. coli GUS (EcGUS) (Escherichia coli, UniProt P05804); settings: DCF-G as substrate, 400 µM; pH 7.4; 37 °C
Text: (§1) While pNPG serves as a useful tool to assess the glucuronide processing capabilities of GUS enzymes, it is not a substrate present in the GI tract. Given our hypothesis that L1 GUS enzymes efficiently process drug glucuronides, we determined using ultra performance liquid chromatography (UPLC) the cleavage rates of the novel L1 GUS enzymes FpGUS, LrGUS, RgGUS, as well as the ten additional enzymes in our GUS panel, with the physiologically relevant glucuronide metabolite of the NSAID diclofenac, DCF-G (Table 3 and Fig. S11).
(§2) Diclofenac acyl β-D-glucuronide (DCF-G) was purchased as a solid (LC Scientific Inc., Concord ON) and resuspended in DMSO to a concentration of 25 mM. […] The pH of each reaction was chosen based on the optimal pH determined for each GUS with pNPG. Reactions were quenched at 0, 1, 2, 3, 4, and 5 min with 50 µL of 25% trichloroacetic acid (TCA). For PmGUS, reactions were quenched at 0, 10, 20, 30, 40, and 50 min. After centrifugation at 13,000xg for 10 min, the resultant supernatant was subjected to UPLC analysis. The concentration of DCF-G remaining at each time point was quantified on a Waters Acquity H-class liquid chromatograph system. Samples were separated on a Waters Acquity UPLC BEH C18 column (2.1 × 50 mm, 1.7 µm particle size) at 40 °C. The flow rate was 0.6 mL/min, and the injection volume was 3 µL. LC conditions were set at 100% water with 0.1% formic acid (A) ramped linearly over 9.8 mins to 95% acetonitrile with 0.1% formic acid (B) and held until 10.2 mins. At 10.21 mins the gradient was switched back to 100% A and allowed to re-equilibrate until 11.25 mins. DCF-G was monitored at 280 nm. The concentration of DCF-G was determined from a standard curve (0–500 µM DCF-G in assay buffer). Control reactions were performed in which enzyme was substituted with buffer. Background hydrolysis was not observed at each pH tested. Reactions were performed in triplicate for each enzyme.

[1] = target: Bacteroides fragilis GUS (BfGUS) (Bacteroides fragilis, UniProt Q5LIC7); settings: DCF-G as substrate, 400 µM; pH 5.0; 37 °C
Bacteroides fragilis GUS (BfGUS), sequence (Q5LIC7 whole entry): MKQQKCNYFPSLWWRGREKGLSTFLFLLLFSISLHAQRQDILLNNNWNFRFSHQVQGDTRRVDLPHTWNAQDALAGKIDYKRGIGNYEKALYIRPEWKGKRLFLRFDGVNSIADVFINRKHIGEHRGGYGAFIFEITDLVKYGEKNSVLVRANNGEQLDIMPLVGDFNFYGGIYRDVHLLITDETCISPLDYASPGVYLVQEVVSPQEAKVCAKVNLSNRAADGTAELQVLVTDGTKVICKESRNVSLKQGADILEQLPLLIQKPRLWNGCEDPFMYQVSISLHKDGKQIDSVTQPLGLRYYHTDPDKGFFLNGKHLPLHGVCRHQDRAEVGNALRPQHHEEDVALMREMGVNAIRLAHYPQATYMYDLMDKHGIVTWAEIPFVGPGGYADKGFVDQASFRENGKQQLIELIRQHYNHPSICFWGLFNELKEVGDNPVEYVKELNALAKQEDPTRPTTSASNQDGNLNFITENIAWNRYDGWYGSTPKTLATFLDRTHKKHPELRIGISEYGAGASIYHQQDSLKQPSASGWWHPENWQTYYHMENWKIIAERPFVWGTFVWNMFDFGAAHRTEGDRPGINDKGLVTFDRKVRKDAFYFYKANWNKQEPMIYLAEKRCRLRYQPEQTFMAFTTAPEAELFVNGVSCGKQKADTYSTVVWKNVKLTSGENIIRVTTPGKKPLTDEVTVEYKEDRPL
Text: as §1, §2

[2] = target: T1, Streptococcus agalactiae GUS (SaGUS) (Streptococcus agalactiae serotype V, UniProt Q8E0N2); settings: DCF-G as substrate, 400 µM; pH 6.5; 37 °C
T1 construct: 6x His; made in house
T1 sequence (Q8E0N2 whole entry): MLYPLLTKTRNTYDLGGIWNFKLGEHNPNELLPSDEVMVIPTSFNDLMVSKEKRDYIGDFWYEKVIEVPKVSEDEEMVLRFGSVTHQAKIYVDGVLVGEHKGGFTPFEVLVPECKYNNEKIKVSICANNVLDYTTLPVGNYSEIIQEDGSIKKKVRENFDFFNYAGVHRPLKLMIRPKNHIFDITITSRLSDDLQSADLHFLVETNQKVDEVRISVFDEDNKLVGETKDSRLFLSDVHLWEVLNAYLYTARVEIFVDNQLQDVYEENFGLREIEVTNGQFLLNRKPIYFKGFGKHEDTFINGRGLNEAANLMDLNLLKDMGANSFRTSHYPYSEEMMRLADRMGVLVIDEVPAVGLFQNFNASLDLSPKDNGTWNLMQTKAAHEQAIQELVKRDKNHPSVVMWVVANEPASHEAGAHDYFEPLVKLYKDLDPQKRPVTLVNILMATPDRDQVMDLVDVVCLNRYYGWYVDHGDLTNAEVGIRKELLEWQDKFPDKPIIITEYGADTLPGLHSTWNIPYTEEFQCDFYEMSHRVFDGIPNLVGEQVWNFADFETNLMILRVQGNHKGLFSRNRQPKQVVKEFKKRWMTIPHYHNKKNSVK
Text: as §1, §2

[3] = target: T2, Bacteroides dorei GUS (BdGUS) (Phocaeicola dorei, UniProt I9FNR0); settings: DCF-G as substrate, 400 µM; pH 6.0; 37 °C
T2 sequence (I9FNR0 21-875): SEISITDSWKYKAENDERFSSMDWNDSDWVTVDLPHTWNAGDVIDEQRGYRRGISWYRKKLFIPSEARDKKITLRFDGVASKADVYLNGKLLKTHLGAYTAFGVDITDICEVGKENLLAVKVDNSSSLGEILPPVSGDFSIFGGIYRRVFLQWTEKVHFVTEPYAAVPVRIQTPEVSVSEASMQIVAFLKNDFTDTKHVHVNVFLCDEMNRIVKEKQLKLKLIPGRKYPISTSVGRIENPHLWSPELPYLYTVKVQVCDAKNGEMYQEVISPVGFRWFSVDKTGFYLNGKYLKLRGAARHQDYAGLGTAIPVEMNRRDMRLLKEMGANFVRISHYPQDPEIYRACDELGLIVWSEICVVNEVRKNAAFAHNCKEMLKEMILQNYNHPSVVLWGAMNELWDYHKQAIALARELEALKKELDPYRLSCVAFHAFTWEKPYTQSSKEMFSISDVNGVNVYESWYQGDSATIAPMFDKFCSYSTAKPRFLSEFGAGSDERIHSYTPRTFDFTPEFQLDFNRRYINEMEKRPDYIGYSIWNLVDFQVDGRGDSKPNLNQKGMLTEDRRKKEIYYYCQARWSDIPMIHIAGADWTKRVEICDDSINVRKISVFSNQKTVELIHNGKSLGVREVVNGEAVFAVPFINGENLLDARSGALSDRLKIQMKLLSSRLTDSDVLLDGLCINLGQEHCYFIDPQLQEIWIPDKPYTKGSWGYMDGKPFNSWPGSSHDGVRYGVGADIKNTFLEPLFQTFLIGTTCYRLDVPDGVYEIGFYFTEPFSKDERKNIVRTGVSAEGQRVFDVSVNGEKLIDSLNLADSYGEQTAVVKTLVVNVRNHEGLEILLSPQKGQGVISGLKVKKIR

E. coli GUS (EcGUS), sequence (P05804 whole entry): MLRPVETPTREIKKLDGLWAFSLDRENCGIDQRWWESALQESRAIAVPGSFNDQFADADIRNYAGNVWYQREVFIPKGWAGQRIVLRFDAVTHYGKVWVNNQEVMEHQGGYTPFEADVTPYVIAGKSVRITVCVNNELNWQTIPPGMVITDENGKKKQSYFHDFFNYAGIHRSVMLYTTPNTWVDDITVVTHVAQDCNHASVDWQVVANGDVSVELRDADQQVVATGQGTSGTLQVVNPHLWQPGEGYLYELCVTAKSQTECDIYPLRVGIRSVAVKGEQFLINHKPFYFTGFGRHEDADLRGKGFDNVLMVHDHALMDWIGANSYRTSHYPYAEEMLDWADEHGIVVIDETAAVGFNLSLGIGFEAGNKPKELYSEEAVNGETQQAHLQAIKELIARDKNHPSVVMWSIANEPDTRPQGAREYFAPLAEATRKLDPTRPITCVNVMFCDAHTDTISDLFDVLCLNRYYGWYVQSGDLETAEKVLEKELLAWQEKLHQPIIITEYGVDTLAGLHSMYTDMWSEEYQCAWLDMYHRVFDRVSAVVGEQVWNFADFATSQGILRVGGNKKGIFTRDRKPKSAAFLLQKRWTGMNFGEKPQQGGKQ

## O=C(Cc1ccccc1Nc1c(Cl)cccc1Cl)O[C@@H]1O[C@H](C(=O)O)[C@@H](O)[C@H](O)[C@H]1O [DCF-G, Diclofenac acyl β-D-glucuronide]
E. coli GUS (EcGUS)
  Apparent kcat: 30.7 s⁻¹ and 30.7 ± 0.7 s⁻¹
[1]
  Apparent kcat: 15.1 s⁻¹ and 15.1 ± 0.5 s⁻¹
[2]
  Apparent kcat: 97 s⁻¹ and 97 ± 5 s⁻¹
[3]
  Apparent kcat: 9.8 ± 0.6 s⁻¹
